According to patent publication US20210260022A1, “SYNERGY FOR INCREASING ENERGY EXPENDITURE AND INSULIN SENSITIVITY” (The Board of Supervisors of Louisiana State University and …, priority 2018, published 2021):
One block for each compound: values may come before it.

Key:
[1] = test system: human adipocytes; test: Acute agonist-stimulated lipolysis (glycerol release) in untreated and NRBC-treated adipocytes; assay type: cell-based; details: 4.5 hour agonist exposure
Method: Acute agonist-stimulated glycerol release in untreated and NRBC-treated adipocytes. After 7d treatment with vehicle or NRBC, cells were exposed to receptor agonists dissolved in KRB with 1% BSA for 4.5 hours. Supernatants were removed for measurement of glycerol.
On the day of the acute lipolysis assay, cell cultures were rinsed with KRB to remove serum and exposed to the individual receptor agonists in KRB. Lipolysis was measured as glycerol released into the cell supernatant over 4.5 hour of agonist exposure. Non-hydrolyzable cAMP was also evaluated in each experiment as a positive control to measure the maximum capacity for PKA-stimulated lipolysis.

[2] = test system: human adipocytes; test: qRT-PCR in human adipocytes (hADSC) treated two days with naringenin and inhibitors; assay type: cell-based; details: 2d treatment
Method: Human white adipocytes were treated for 2d with naringenin in the presence of inhibitors of metabolic pathways to determine the mechanism of action for stimulating fat oxidation and thermogenic energy expenditure.
Naringenin increased UCP1 and CPT1β mRNA induction compared to control (p<0.001). PPARα and PPARγ inhibition reduced UCP1 and CPT1β mRNA expression (p<0.001). Each experiment was conducted with three biological replicates and four technical replicates.
The whole orange extract was dissolved in DMSO at 15 mM (based on 28% naringenin content) and added to cells at a dilution of 1:500 to achieve a final concentration of 30 μM. The inhibitors added to the naringenin-treated cells included: peroxisome proliferator-activated receptor alpha (PPARα) antagonist GW6471 and peroxisome proliferator-activated receptor gamma (PPARγ) antagonist GW9662 (Cayman Chemical, Ann Arbor, Mich.) at 10 μM concentration, protein kinase A (PKA) inhibitor H89 (Millipore Sigma, Burlington, Mass.) at 20 μM concentration, and protein kinase G (PKG) inhibitor […] (Biolog Life Science Institute, AXXORA, LLC, Farmingdale, N.Y.) at 50 μM concentration. GW6471 and GW9662 were dissolved in DMSO at 1000×, H89 was dissolved in PBS at 500×, and Rp-8-pCPT-cGMPS was dissolved in PBS at 100× prior to dilution in cell culture medium. Following a two-day treatment, the cells were harvested with Trizol reagent. RNeasy Mini Kit (Qiagen, Germantown, Md.) was used to isolate total RNA following manufacturer's protocol. The expression of UCP1, CPT1β, and GLUT4 was quantified with one-step reverse transcriptase PCR using the reverse PCR primer to prime cDNA synthesis as previously described.^6

[3] = test system: human adipocytes; test: UCP1 mRNA in human adipocytes, naringenin combined with other botanical compounds; assay type: cell-based; details: 5 μM naringenin in combination
Method: Human adipocytes were treated with 5 μM naringenin or with naringenin in combination with other botanical compounds to evaluate synergy in inducing UCP1 mRNA expression. A range of other botanical compounds such as […]

[4] = test system: mice; details: 100 mg/kg injected daily; cited from earlier work
[5] = test system: human adipocytes; test: mRNA expression (Taqman RT-PCR) in differentiated human adipocytes after 7 day treatment; assay type: cell-based; details: for UCP1 and GLUT4 expression, carotenoid alone: 2 μM carotenoid; for UCP1 and GLUT4 expression, carotenoid alone / UCP1 and GLUT4 expression, carotenoid in combination with naringenin extract: seven days; for UCP1 and GLUT4 expression, carotenoid in combination with naringenin extract: 8 μM naringenin extract + 2 μM carotenoid; for gene expression, carotenoid in combination with NR: compared with BC + NR
[6] = 4 mg/day, six months, obese children; cited from earlier work
[7] = test system: mice; details: 150 mg/kg/day dietary; cited from earlier work

Compound: CC[C@H](C)[C@@H]1NC(=O)[C@H](CCCNC(=N)N)NC(=O)[C@H](CC(=O)O)NC(=O)[C@H](CCSC)NC(=O)[C@H](CCCNC(=N)N)NC(=O)CNC(=O)CNC(=O)[C@H](Cc2ccccc2)NC(=O)[C@@H](NC(=O)[C@H](CO)NC(=O)[C@H](CO)NC(=O)[C@H](CCCNC(=N)N)NC(=O)[C@H](CCCNC(=N)N)NC(=O)[C@H](CC(C)C)NC(=O)[C@@H](N)CO)CSSC[C@@H](C(=O)N[C@@H](CC(N)=O)C(=O)N[C@@H](CO)C(=O)N[C@@H](Cc2ccccc2)C(=O)N[C@@H](CCCNC(=N)N)C(=O)N[C@@H](Cc2ccc(O)cc2)C(=O)O)NC(=O)CNC(=O)[C@H](CC(C)C)NC(=O)CNC(=O)[C@H](CO)NC(=O)[C@H](CCC(N)=O)NC(=O)[C@H](C)NC(=O)CNC1=O [ANP]
lipolysis stimulated by the agonist (glycerol release) [1]: highest levels of lipolysis

Compound: Nc1nc2c(nc(Sc3ccc(Cl)cc3)n2[C@@H]2O[C@@H]3CO[P@@](=O)(S)O[C@H]3[C@H]2O)c(=O)[nH]1 [Biolog C013, reference compound]
Induction of UCP1 and CPT-1b by naringenin in the presence of the inhibitor [2]: unaffected

Compound: Nc1ncnc2c1ncn2[C@@H]1O[C@@H]2COP(=O)(O)O[C@H]2[C@H]1O [Cyclic AMP]
lipolysis stimulated by the agonist (glycerol release) [1]: greater lipolysis activity than any individual receptor ligand

Compound: CC12CCC(CC1)C(C)(C)O2 [Ecalyptol]
synergy with naringenin in increasing UCP1 mRNA levels [3]: did not synergize

Compound: CCC(=O)NC[C@H](Cc1ccc(OCCc2nc(-c3ccccc3)oc2C)cc1)N/C(C)=C\C(=O)c1ccc(C(F)(F)F)cc1 [GW6471, reference compound]
Induction of UCP1 and CPT-1b by naringenin in the presence of the inhibitor [2]: abolished

Compound: O=C(Nc1ccccc1)c1cc([N+](=O)[O-])ccc1Cl [GW9661, reference compound]
Induction of UCP1 and CPT-1b by naringenin in the presence of the inhibitor [2]: abolished

Compound: O=S(=O)(NCCNC/C=C/c1ccc(Br)cc1)c1cccc2cnccc12 [H89, reference compound]
Induction of UCP1 and CPT-1b by naringenin in the presence of the inhibitor [2]: partially reduced

Compound: CCCCCCCC/C=C\CCCCCCCC(=O)NCCO [OEA, oleoylethanolamide]
synergy with naringenin in increasing UCP1 mRNA levels [3]: did not synergize

Compound: CC1=C(/C=C/C(C)=C/C=C/C(C)=C/C(=O)O)C(C)(C)CCC1 [atRA, All-trans retinoic acid]
body weight and adiposity [4]: reduction in body weight and adiposity

RNA expression of uncoupling protein-1, adipose tissue glyceride lipase and adiponectin ([5]; beta carotene at 1 micromolar): increase RNA expression
Compound: CC1=C(/C=C/C(C)=C/C=C/C(C)=C/C=C/C=C(C)/C=C/C=C(C)/C=C/C2=C(C)CCCC2(C)C)C(C)(C)CCC1 [beta carotene, β-Carotene]
UCP1 and GLUT4 expression, carotenoid alone [5]: no effect
BMI z-score, subcutaneous and visceral adipose tissue, waist circumference [6]: reduction in BMI z-score, subcutaneous adipose tissue, visceral adipose tissue, waist circumference
insulin sensitivity [6]: improved insulin sensitivity
adiposity, food intake, bodyweight [7]: reduced adiposity without altering food intake or bodyweight

Compound: CC(CCc1ccc(O)cc1)NCCc1ccc(O)c(O)c1 (stereo not shown) [dobutamine]
lipolysis stimulated by the agonist (glycerol release) [1]: comparable to isoproterenol

Compound: CC1=C[C@H](O)CC(C)(C)[C@H]1/C=C/C(C)=C/C=C/C(C)=C/C=C/C=C(C)/C=C/C=C(C)/C=C/C1=C(C)C[C@@H](O)CC1(C)C [lutein, Lutein]
UCP1 and GLUT4 expression, carotenoid alone [5]: no effect
UCP1 and GLUT4 expression, carotenoid in combination with naringenin extract [5]: act synergistically
gene expression, carotenoid in combination with NR [5]: synergistic effect

Compound: CC(C)=CCC/C(C)=C/C=C/C(C)=C/C=C/C(C)=C/C=C/C=C(C)/C=C/C=C(C)/C=C/C=C(\C)CCC=C(C)C [lycopene, Lycopene]
UCP1 and GLUT4 expression, carotenoid alone [5]: no effect
UCP1 and GLUT4 expression, carotenoid in combination with naringenin extract [5]: act synergistically
gene expression, carotenoid in combination with NR [5]: synergistic effect

Compound: PTH: parathyroid hormone (1-34) (SVSEIQLMHNLGKHLNSMERVEWLRKKLQDVHNF; Parathyroid hormone; UniProt P01270 32-65, looked up, fragment)
lipolysis stimulated by the agonist (glycerol release) [1]: highest levels of lipolysis
